Results on 1 molecule are retold here after article PMC9878617, “Distinct conformational changes occur within the intrinsically unstructured pro‐domain of pro‐Nerve Growth Factor in the presence of ATP and Mg^2+” (Protein Science : A Publication of the Protein Society, 2023).

The structures appear in SMILES notation. pKd: −log10 of the molar value.

This assay addresses T1, rh-proNGF (Homo sapiens, UniProt P01138).
T1 construct: gene NGF; proNGF without signal peptide; homodimer
As to the kind of experiment: ITC, global fit of two titrations (SEDPHAT). The conditions noted are these: read-out: Best-fit value. Format: binding. The text has this:
ITC, global fit of two titrations (SEDPHAT) on rh-proNGF

T1 sequence (P01138 19-241): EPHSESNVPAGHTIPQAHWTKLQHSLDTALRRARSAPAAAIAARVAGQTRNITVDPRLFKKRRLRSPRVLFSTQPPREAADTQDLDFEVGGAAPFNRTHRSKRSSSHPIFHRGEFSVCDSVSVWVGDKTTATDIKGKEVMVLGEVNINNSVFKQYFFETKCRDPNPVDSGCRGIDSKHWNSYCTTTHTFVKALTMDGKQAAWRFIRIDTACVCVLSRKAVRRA

As to `Nc1ncnc2c1ncn2[C@@H]1O[C@H](COP(=O)(O)OP(=O)(O)OP(=O)(O)O)[C@@H](O)[C@H]1O` [ATP], the pKd was 4.40.
